Among the test systems are HCT-116 colon; K-562 leukemia; OVCAR-4 ovarian; COLO 205 colon; MALME-3M melanoma; HL-60(TB) leukemia; DU-145 prostate; HS 578T breast.
Experiment in all cases: DTP human tumour cell line panel, 48 h

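The compound was tested at five concentrations on cells cultured in 96-well plates, with a 48-hour exposure period. GI50 = concentration required for 50% inhibition of growth. TGI: concentration producing complete growth inhibition.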

GI50 and TGI data for 10 compounds are collected here from PubChem BioAssay (NCI).

With `COC(=O)[C@H](Cc1ccccc1)NC(=O)c1csc([C@@H](C[C@H](C(C)C)N(C)C(=O)[C@@H](NC(=O)[C@H]2CCCN2C)C2CC2)OC(C)=O)n1`, the GI50 with HCT-116 colon is 0.138 µM; in the experiment with K-562 leukemia, 0.113 µM; in the experiment with OVCAR-4 ovarian, 3.98 µM; with COLO 205 colon, 0.456 µM; in the experiment on MALME-3M melanoma, 5.49 µM; with HL-60(TB) leukemia, 0.204 µM. The GI50 with DU-145 prostate was 0.346 µM; with HS 578T breast it was 0.122 µM. Also, the TGI in the experiment on HCT-116 colon was 21.4 µM; in the experiment with K-562 leukemia, more than 33.3 µM; with OVCAR-4 ovarian, more than 33.3 µM; in the experiment with COLO 205 colon, 4.29 µM; in the experiment on MALME-3M melanoma it was more than 33.3 µM; in the experiment with HL-60(TB) leukemia, 1.9 µM. The TGI with DU-145 prostate and in the experiment on HS 578T breast was more than 33.3 µM each time.
Regarding `COc1ccc2c(c1)nc1n2C(c2ccc(F)cc2)SC1` (centres undefined), the GI50 in the experiment on HCT-116 colon is 30.8 µM; with K-562 leukemia it was 42.3 µM; with OVCAR-4 ovarian, 33.8 µM; in the experiment on COLO 205 colon, 16 µM; in the experiment with MALME-3M melanoma, 23.5 µM; in the experiment with HL-60(TB) leukemia it was 28.4 µM. Further, the GI50 was 15.2 µM with DU-145 prostate and 28.3 µM in the experiment on HS 578T breast. Further, the TGI is more than 100 µM with HCT-116 colon; more than 100 µM in the experiment with K-562 leukemia; more than 100 µM with OVCAR-4 ovarian; 37.4 µM with COLO 205 colon; 63 µM in the experiment with MALME-3M melanoma; more than 100 µM in the experiment with HL-60(TB) leukemia. Moreover, the TGI is more than 100 µM with DU-145 prostate and 70.5 µM in the experiment with HS 578T breast.
As for `Nc1ccn([C@@H]2C(F)=C(CO)[C@@H](O)[C@H]2O)c(=O)n1`, the GI50 is 0.395 µM in the experiment on HCT-116 colon; 0.781 µM in the experiment with K-562 leukemia; 23.2 µM in the experiment with OVCAR-4 ovarian; 0.838 µM in the experiment with COLO 205 colon; 9.57 µM with MALME-3M melanoma; 0.889 µM in the experiment on HL-60(TB) leukemia. For the same compound, the GI50 is 0.445 µM with DU-145 prostate and 12.3 µM in the experiment with HS 578T breast. Besides, the TGI in the experiment on HCT-116 colon, with K-562 leukemia, in the experiment on OVCAR-4 ovarian, in the experiment on COLO 205 colon, in the experiment on MALME-3M melanoma and in the experiment on HL-60(TB) leukemia was more than 100 µM each time. Besides, the TGI in the experiment with DU-145 prostate and with HS 578T breast was more than 100 µM in each case.
For the compound `O=C(Cc1ccc(/C=C/C(=O)c2ncc[nH]2)cc1)Nc1ccc(C(F)(F)F)cc1`, the GI50 was 0.694 µM in the experiment on HCT-116 colon; 1.24 µM in the experiment with K-562 leukemia; 5.12 µM in the experiment on OVCAR-4 ovarian; 5.38 µM in the experiment on COLO 205 colon; 5.18 µM in the experiment with MALME-3M melanoma; 2.03 µM in the experiment on HL-60(TB) leukemia. Also, the GI50 was 2.13 µM with DU-145 prostate and 5.88 µM in the experiment on HS 578T breast. Besides, the concentration for total growth inhibition (TGI) was 1.74 µM in the experiment on HCT-116 colon; more than 33.3 µM in the experiment with K-562 leukemia; 22.1 µM in the experiment with OVCAR-4 ovarian; 11.8 µM in the experiment on COLO 205 colon; 12.9 µM in the experiment with MALME-3M melanoma; 20 µM in the experiment on HL-60(TB) leukemia. In addition, the TGI was 6.3 µM with DU-145 prostate and more than 33.3 µM in the experiment with HS 578T breast.
Regarding `O=C(Nc1cc(S(=O)(=O)c2ccc(Cl)cc2)ccc1Cl)c1cc(I)cc(I)c1O`, the GI50 with HCT-116 colon is 14.3 µM; with K-562 leukemia, 16 µM; in the experiment on OVCAR-4 ovarian it was 17.2 µM; in the experiment on COLO 205 colon, 15.8 µM; in the experiment with MALME-3M melanoma, 21.1 µM; in the experiment with HL-60(TB) leukemia, 14.5 µM. Moreover, the GI50 in the experiment on DU-145 prostate is 17.2 µM; in the experiment on HS 578T breast, 17.8 µM. The TGI turned out to be 27.7 µM with HCT-116 colon; 40.9 µM in the experiment on K-562 leukemia; 33.5 µM in the experiment on OVCAR-4 ovarian; 29.6 µM with COLO 205 colon; 48.5 µM in the experiment with MALME-3M melanoma; 31.6 µM with HL-60(TB) leukemia. Also, the total growth inhibition concentration (TGI) in the experiment with DU-145 prostate is 30.9 µM; in the experiment with HS 578T breast, 47.6 µM.
For `O=C(CCN1CCCC1)Nc1ccc2c(Nc3ccccc3)c3ccccc3nc2c1`, the GI50 is 0.611 µM in the experiment with HCT-116 colon; 0.235 µM in the experiment with K-562 leukemia; 0.468 µM in the experiment on OVCAR-4 ovarian; 0.787 µM in the experiment on COLO 205 colon; 1.46 µM in the experiment on MALME-3M melanoma; 0.264 µM in the experiment on HL-60(TB) leukemia. Also, the 50% growth inhibitory concentration (GI50) is 0.172 µM in the experiment with DU-145 prostate and 1.09 µM with HS 578T breast. Besides, the concentration for total growth inhibition (TGI) with HCT-116 colon was found to be 2.2 µM; in the experiment with K-562 leukemia, 1.2 µM; with OVCAR-4 ovarian, 2.13 µM; in the experiment with COLO 205 colon, 2.49 µM; in the experiment with MALME-3M melanoma, 2.83 µM; in the experiment on HL-60(TB) leukemia, 1.61 µM. Further, the TGI with DU-145 prostate is 1.64 µM; in the experiment on HS 578T breast, 3.28 µM.
Take `COc1ccc(/C=C(/C(=O)n2cnnn2)c2cc(OC)c(OC)c(OC)c2)cc1`: the GI50 was 3.08 µM in the experiment on HCT-116 colon; 2.86 µM with K-562 leukemia; 40.5 µM with OVCAR-4 ovarian; 2.92 µM in the experiment with COLO 205 colon; 7.75 µM in the experiment on MALME-3M melanoma; 2.77 µM in the experiment with HL-60(TB) leukemia. Moreover, the GI50 in the experiment on DU-145 prostate is 3.5 µM; with HS 578T breast, 4.07 µM. In addition, the TGI in the experiment with HCT-116 colon is more than 100 µM; with K-562 leukemia it was more than 100 µM; in the experiment with OVCAR-4 ovarian, more than 100 µM; in the experiment with COLO 205 colon, 7.21 µM; in the experiment on MALME-3M melanoma, more than 100 µM; in the experiment on HL-60(TB) leukemia it was more than 100 µM. Further, the TGI in the experiment on DU-145 prostate and in the experiment on HS 578T breast was more than 100 µM each time.
Take `CC(C)(C)[Si](C)(C)OCC1OC(n2cnc3c(N)ncnc32)C(O)C1O` (centres undefined): the TGI in the experiment with HCT-116 colon, with K-562 leukemia, in the experiment with OVCAR-4 ovarian, in the experiment on COLO 205 colon, in the experiment with MALME-3M melanoma and in the experiment on HL-60(TB) leukemia was more than 100 µM each time. Besides, the TGI with DU-145 prostate and in the experiment with HS 578T breast was more than 100 µM throughout.
On to `O=C(O)Cn1ccnc1[N+](=O)[O-]`, for which the TGI with HCT-116 colon, with K-562 leukemia, in the experiment with OVCAR-4 ovarian, in the experiment with COLO 205 colon, in the experiment with MALME-3M melanoma and with HL-60(TB) leukemia was more than 100 µM throughout. Moreover, the TGI with DU-145 prostate and in the experiment on HS 578T breast was more than 100 µM in each case.
For `COc1cc2cc(Oc3ccc(NC(=O)c4cccc5c4OCCO5)cc3)c(C)nc2cc1OC`, the GI50 with HCT-116 colon was 3.42 µM; with K-562 leukemia it was 4.81 µM; in the experiment with OVCAR-4 ovarian it was 3.32 µM; with COLO 205 colon it was 4.95 µM; in the experiment on MALME-3M melanoma, 8.76 µM; in the experiment on HL-60(TB) leukemia, 5.38 µM. Also, the GI50 with DU-145 prostate is 25.7 µM; with HS 578T breast, 5.64 µM. Moreover, the TGI with HCT-116 colon is more than 100 µM; in the experiment on K-562 leukemia it was more than 100 µM; in the experiment with OVCAR-4 ovarian, 35 µM; in the experiment on COLO 205 colon, more than 100 µM; in the experiment with MALME-3M melanoma it was more than 100 µM; in the experiment on HL-60(TB) leukemia, more than 100 µM. In addition, the TGI with DU-145 prostate and in the experiment with HS 578T breast was more than 100 µM in each case.
